# In article PMC7316994, “In Vitro Pharmacological Profile of a New Small Molecule Bradykinin B2 Receptor Antagonist” (Frontiers in Pharmacology, 2020):
# Columns and labels:
# Apelin APJ = Apelin APJ (Homo sapiens, UniProt P35414); experiment: radioligand binding (Table S2); details: [125I] [Glp65, Nle75, Tyr77]-apelin-13, Human recombinant CHO cells
# Chemokine CXCR2 (IL-8RB) = Chemokine CXCR2 (IL-8RB) (Homo sapiens, UniProt P25025); experiment: radioligand binding (Table S2); details: [125I] IL-8, Human recombinant CHO-K1 cells
# Cholecystokinin CCK1 = Cholecystokinin CCK1 (Homo sapiens, UniProt P32238); experiment: radioligand binding (Table S2); details: [125I] CCK-8s, Human recombinant CHO cells
# [1] = molecular target: T1, Cysteinyl leukotriene receptor CysLT1 (Homo sapiens, UniProt Q9Y271); experiment: radioligand binding (Table S2); details: [3H] LTD4, Human recombinant CHO cells
# T1 construct: host or cells: CHO cells
# Kainate = experiment: radioligand binding (Table S2); details: [3H] Kainic acid, Rat cerebral cortex
# [2] = molecular target: T2, Melanin-concentrating hormone receptor MCH1 (Homo sapiens, UniProt Q99705); experiment: radioligand binding (Table S2); details: [125I] [Phe13, Tyr19]-MCH, Human recombinant CHO cells
# T2 construct: host or cells: CHO cells
# Opioid κ (KOP) = molecular target: T3, Opioid κ (KOP) (Rattus norvegicus, UniProt P34975); experiment: radioligand binding (Table S2); details: [3H] U 69593, Rat recombinant CHO cells
# T3 construct: host or cells: CHO cells
# Opioid µ (MOP) = molecular target: T4, Opioid µ (MOP) (Homo sapiens, UniProt P35372); experiment: radioligand binding (Table S2); details: [3H] DAMGO, Human recombinant HEK-293 cells
# T4 construct: host or cells: HEK-293 cells
# [3] = system: Potassium channel voltage gated KV channel; assay type: binding; details: [125I] α-dendrotoxin, Rat cerebral cortex
# Prostanoid EP2 = molecular target: T5, Prostanoid EP2 (Homo sapiens, UniProt P43116); experiment: radioligand binding (Table S2); details: [3H] Prostaglandin E2, Human recombinant HEK-293 cells
# T5 construct: host or cells: HEK-293 cells
# Prostanoid EP4 = molecular target: T6, Prostanoid EP4 (Homo sapiens, UniProt P35408); experiment: radioligand binding (Table S2); details: [3H] Prostaglandin E2, Human recombinant Chem-1 cells
# T6 construct: host or cells: Chem-1 cells
# Prostanoid FP = molecular target: T7, Prostanoid FP (Homo sapiens, UniProt P43088); experiment: radioligand binding (Table S2); details: [3H] Prostaglandin F2α, Human recombinant HEK-293 cells
# T7 construct: host or cells: HEK-293 cells
# Serotonin 5-HT1A = molecular target: T8, Serotonin 5-HT1A (Homo sapiens, UniProt P08908); experiment: radioligand binding (Table S2); details: [3H] 8-OH-DPAT, Human recombinant HEK-293 cells
# T8 construct: host or cells: HEK-293 cells
# Acetylcholinesterase = molecular target: T9, Acetylcholinesterase (Homo sapiens, UniProt P22303); experiment: enzyme assay (Table S2); assay type: biochemical; details: Acetylthiocholine (400 µM), Photometry
# T9 construct: Eurofins (assay provider); host or cells: HEK-293 cells
# PDE3A = PDE3A (Homo sapiens, UniProt Q14432); experiment: enzyme assay (Table S2); assay type: biochemical; details: [3H]cAMP + cAMP (0.5 µM), Scintillation counting
# PDGFRβ kinase = molecular target: T10, PDGFRβ kinase (Homo sapiens, UniProt P09619); experiment: enzyme assay (Table S2); assay type: biochemical; details: ATP + Ulight-PolyGAT (25 nM), LANCE
# T10 construct: host or cells: insect cells
# PKCα = PKCα (Homo sapiens, UniProt P17252); experiment: enzyme assay (Table S2); assay type: biochemical; details: HTRF
# Neurokinin NK3 = molecular target: T11, Neurokinin NK3 (Homo sapiens, UniProt P29371); experiment: functional assay, intracellular [Ca2+], CHO cells (Table S2); assay type: cell-based
# T11 construct: host or cells: CHO cells
# T11 sequence (P29371 1-465): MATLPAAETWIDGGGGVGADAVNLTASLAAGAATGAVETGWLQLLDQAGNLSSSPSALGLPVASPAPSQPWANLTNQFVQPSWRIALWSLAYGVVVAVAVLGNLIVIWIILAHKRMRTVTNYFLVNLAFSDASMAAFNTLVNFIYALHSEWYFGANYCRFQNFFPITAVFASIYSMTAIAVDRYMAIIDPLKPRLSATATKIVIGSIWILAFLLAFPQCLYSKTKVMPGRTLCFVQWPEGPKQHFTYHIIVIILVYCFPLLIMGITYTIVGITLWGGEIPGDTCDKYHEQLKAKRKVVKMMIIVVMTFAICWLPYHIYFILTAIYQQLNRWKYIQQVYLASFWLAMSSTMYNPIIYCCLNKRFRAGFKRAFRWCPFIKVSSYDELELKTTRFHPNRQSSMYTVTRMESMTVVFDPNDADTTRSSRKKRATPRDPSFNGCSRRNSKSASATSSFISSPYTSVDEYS
# in vitro = details: male, Wistar, rat, microsomes, pH 7.4
# Adenosine A3 = molecular target: T12, Adenosine A3 (Homo sapiens, UniProt P0DMS8); experiment: functional assay, cAMP HTRF, CHO cells (Table S2); assay type: cell-based; parameters: host or cells: CHO cells
# T12 sequence (P0DMS8 1-318): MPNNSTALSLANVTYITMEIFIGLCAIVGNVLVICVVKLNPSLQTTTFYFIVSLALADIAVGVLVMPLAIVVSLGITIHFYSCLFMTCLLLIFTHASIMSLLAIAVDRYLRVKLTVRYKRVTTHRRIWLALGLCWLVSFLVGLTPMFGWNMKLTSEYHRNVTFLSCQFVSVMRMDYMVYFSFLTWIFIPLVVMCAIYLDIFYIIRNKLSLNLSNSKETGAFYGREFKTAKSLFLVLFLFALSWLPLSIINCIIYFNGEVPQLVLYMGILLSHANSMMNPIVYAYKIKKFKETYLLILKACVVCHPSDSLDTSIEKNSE
# Adenosine A2B = Adenosine A2B (Homo sapiens, UniProt P29275); experiment: radioligand binding (Table S2); details: read-out: % Inhibition @ 10 µM
# Cannabinoid CB2 = Cannabinoid CB2 (Homo sapiens, UniProt P34972); experiment: radioligand binding (Table S2); details: read-out: % Inhibition @ 10 µM
# [4] = molecular target: Gamma-aminobutyric acid GABAB1A (Homo sapiens, UniProt Q9UBS5); experiment: radioligand binding (Table S2); details: read-out: % Inhibition @ 10 µM
# [5] = molecular target: Gamma-aminobutyric acid GABAB1B (Homo sapiens, UniProt Q9UBS5); experiment: radioligand binding (Table S2); details: read-out: % Inhibition @ 10 µM
# Sequence of Cholecystokinin CCK1 (P32238 whole entry): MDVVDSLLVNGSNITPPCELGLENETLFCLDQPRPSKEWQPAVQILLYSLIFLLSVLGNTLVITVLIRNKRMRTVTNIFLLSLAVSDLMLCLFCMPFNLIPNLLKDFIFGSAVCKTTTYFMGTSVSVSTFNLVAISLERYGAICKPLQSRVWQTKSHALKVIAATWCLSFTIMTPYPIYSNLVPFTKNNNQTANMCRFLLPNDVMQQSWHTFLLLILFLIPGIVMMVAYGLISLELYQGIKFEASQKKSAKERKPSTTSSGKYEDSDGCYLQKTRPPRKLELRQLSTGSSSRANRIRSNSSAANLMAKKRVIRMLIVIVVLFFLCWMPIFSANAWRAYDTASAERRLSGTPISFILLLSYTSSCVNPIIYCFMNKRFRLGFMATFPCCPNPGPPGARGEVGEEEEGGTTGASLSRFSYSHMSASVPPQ
# T2 sequence (Q99705 whole entry): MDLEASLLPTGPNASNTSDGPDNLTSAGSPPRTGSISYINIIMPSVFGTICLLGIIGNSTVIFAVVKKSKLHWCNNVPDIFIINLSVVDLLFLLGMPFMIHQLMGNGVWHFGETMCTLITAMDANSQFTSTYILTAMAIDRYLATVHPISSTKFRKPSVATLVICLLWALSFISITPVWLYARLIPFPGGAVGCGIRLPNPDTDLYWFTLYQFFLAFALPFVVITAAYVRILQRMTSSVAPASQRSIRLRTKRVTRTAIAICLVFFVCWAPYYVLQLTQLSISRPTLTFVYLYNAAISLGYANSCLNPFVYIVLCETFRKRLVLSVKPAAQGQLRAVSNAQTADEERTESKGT
# T4 sequence (P35372 whole entry): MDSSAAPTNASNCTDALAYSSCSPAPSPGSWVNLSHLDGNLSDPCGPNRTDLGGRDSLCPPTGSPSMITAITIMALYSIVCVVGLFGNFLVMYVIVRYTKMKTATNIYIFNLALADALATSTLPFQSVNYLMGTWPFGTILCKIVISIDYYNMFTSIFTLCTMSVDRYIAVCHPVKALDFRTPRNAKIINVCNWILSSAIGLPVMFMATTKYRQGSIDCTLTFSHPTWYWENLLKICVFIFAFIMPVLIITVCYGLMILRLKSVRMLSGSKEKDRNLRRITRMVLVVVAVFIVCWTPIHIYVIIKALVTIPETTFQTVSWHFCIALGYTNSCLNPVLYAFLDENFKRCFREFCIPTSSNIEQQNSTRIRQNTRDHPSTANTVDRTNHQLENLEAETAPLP
# Sequence of Chemokine CXCR2 (IL-8RB) (P25025 whole entry): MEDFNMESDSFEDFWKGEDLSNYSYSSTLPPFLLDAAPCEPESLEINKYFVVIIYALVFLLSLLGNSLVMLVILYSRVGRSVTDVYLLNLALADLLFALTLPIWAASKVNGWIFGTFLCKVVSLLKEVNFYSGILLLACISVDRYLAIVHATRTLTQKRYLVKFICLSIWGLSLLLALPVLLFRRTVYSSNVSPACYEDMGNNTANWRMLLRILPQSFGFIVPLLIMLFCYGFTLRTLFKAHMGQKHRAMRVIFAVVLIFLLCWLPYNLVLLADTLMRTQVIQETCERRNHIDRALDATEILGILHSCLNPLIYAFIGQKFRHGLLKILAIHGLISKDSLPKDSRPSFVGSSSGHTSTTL
# T9 sequence (P22303 32-614): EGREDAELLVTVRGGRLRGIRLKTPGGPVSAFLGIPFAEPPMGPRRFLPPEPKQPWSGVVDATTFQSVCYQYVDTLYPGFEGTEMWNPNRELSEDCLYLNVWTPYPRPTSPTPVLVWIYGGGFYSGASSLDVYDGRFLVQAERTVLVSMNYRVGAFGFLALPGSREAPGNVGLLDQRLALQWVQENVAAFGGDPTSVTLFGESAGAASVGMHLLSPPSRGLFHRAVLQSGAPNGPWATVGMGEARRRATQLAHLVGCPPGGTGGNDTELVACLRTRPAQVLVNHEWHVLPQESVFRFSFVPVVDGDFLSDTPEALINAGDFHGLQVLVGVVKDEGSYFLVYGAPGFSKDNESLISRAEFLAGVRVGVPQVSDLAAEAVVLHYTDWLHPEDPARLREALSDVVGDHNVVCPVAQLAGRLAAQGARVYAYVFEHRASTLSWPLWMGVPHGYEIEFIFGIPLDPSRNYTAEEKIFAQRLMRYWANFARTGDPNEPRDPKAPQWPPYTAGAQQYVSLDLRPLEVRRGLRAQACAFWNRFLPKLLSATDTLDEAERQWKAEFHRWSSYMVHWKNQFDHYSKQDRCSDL
# Sequence of Gamma-aminobutyric acid GABAB1A (Q9UBS5 15-961 limits assumed): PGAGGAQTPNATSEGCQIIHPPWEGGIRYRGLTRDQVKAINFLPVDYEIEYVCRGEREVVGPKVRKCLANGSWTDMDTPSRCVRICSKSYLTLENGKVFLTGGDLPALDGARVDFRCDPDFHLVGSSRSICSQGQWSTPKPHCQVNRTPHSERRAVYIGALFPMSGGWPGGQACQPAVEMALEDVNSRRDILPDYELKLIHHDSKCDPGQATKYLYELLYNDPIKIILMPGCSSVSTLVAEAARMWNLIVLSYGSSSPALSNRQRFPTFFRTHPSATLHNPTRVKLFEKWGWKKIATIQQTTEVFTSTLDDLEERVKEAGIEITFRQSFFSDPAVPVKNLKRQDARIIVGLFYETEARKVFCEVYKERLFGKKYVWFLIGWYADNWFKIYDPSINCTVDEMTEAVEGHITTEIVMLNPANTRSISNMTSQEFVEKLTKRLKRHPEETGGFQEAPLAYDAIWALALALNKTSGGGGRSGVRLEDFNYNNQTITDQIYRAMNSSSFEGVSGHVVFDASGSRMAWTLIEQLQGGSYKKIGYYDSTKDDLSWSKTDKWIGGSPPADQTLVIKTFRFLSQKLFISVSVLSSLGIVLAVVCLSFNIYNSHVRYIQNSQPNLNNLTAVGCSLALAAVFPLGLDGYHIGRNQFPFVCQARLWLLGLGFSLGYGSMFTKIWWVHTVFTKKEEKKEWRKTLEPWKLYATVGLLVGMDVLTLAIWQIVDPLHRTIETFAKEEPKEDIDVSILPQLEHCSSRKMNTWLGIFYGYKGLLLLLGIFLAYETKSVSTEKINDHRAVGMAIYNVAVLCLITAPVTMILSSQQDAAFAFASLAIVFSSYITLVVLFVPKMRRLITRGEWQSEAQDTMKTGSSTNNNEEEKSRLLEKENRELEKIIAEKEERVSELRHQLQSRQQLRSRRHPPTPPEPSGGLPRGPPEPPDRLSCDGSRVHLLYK
# T7 sequence (P43088 whole entry): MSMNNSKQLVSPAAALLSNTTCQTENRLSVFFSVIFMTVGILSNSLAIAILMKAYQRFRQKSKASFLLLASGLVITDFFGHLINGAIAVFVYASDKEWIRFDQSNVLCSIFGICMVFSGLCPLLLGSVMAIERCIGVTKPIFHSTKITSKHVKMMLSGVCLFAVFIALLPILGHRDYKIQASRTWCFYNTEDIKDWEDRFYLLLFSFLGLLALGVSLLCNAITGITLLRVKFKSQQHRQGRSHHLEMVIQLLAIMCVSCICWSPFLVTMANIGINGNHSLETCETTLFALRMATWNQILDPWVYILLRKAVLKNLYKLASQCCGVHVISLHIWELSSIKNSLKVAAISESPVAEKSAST
# T10 sequence (P09619 33-1106): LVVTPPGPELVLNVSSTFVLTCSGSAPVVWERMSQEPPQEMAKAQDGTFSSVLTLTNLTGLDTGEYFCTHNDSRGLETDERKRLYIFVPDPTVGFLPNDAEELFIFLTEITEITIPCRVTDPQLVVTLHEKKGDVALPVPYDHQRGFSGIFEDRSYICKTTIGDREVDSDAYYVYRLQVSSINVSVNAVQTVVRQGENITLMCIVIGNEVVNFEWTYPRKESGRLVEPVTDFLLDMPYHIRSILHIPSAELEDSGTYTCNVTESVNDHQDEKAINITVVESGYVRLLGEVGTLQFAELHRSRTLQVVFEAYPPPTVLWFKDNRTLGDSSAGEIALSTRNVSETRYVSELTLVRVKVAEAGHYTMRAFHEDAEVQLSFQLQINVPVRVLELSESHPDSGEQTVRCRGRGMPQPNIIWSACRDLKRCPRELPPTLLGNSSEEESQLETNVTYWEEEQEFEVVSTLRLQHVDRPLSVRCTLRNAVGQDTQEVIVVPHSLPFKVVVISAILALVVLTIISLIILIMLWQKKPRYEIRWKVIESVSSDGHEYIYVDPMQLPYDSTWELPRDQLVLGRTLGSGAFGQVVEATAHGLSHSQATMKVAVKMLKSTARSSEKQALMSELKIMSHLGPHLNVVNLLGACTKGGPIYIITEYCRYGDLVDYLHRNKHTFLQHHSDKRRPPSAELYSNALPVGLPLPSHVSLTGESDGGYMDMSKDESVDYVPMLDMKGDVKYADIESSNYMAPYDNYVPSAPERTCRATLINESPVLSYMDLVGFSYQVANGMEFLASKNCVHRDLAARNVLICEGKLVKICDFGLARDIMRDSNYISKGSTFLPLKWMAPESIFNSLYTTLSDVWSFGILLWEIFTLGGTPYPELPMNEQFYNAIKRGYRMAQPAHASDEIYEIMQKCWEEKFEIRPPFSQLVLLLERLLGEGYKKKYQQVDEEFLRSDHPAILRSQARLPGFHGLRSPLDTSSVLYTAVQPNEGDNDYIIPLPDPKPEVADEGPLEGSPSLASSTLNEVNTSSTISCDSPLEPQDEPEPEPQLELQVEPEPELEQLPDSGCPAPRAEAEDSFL
# T1 sequence (Q9Y271 whole entry): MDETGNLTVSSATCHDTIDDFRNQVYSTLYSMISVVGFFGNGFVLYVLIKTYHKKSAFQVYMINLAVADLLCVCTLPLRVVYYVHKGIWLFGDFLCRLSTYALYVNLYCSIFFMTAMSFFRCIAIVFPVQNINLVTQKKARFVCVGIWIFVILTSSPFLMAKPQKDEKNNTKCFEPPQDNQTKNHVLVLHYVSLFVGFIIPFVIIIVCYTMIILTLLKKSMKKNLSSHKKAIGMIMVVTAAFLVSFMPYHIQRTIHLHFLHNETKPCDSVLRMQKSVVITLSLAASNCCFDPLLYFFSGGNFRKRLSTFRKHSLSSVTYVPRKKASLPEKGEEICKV
compound,measurement,setting,value
"Cc1cc(-c2ncnn2C)c2cccc(OCc3c(Cl)cc(F)cc3[C@H](C)NC(=O)COC(F)F)c2n1 [Compound 3, (S)-N-(1-(3-chloro-5-fluoro-2-((2-methyl-4-(1-methyl-1H-1,2,4-triazol-5-yl)quinolin-8-yloxy)methyl)phenyl)ethyl)-2-(difluoromethoxy)acetamide]",inhibition at 10 µM,Apelin APJ,-0.4%
same,inhibition at 10 µM,Chemokine CXCR2 (IL-8RB),17%
same,inhibition at 10 µM,Cholecystokinin CCK1,2.7%
same,inhibition at 10 µM,[1],-2.2%
same,% Inhibition @ 10 µM,Kainate,-4.4%
same,inhibition at 10 µM,[2],13.4%
same,inhibition at 10 µM,Opioid κ (KOP),15.4%
same,inhibition at 10 µM,Opioid µ (MOP),13.6%
same,% Inhibition @ 10 µM,[3],2.3%
same,inhibition at 10 µM,Prostanoid EP2,12%
same,inhibition at 10 µM,Prostanoid EP4,3%
same,inhibition at 10 µM,Prostanoid FP,19%
same,inhibition at 10 µM,Serotonin 5-HT1A,-4%
same,inhibition at 10 µM,Acetylcholinesterase,8.4%
same,inhibition at 10 µM,PDE3A,15.9%
same,inhibition at 10 µM,PDGFRβ kinase,-1%
same,inhibition at 10 µM,PKCα,1.4%
same,% of reference agonist response @ 10 µM (agonist effect),"Neurokinin NK3; 10 µM, reference [MePhe7]-NKB (30 nM)",7.0%
same,inhibition at 10 µM,"Neurokinin NK3; CHO, read-out: % inhibition of reference agonist response @ 10 µM (antagonist effect), 10 µM, [MePhe7]-NKB (1 nM)",40.8%
same,IC50,"Neurokinin NK3; [MePhe7]-NKB (1 nM), read-out: IC50 (µM), functional antagonism",17 µM
same,Kb,"Neurokinin NK3; [MePhe7]-NKB (1 nM), read-out: Kb (µM), functional antagonism",1.6 µM
same,microsomal CLint at 1 µM,in vitro,27.9 µL/min/mg
same,inhibition at 10 µM,"Adenosine A3; CHO, read-out: % inhibition of reference agonist response @ 10 µM (antagonist effect), IB-MECA (10 nM)",8.5%
same,% of reference agonist response @ 10 µM (agonist effect),Adenosine A3; reference IB-MECA (100 nM),10.5%
same,inhibition at 10 µM,Adenosine A2B,3.6%
same,inhibition at 10 µM,Cannabinoid CB2,-17.7%
same,inhibition at 10 µM,[4],8%
same,inhibition at 10 µM,[5],9%
